Drawing on patent US20220009920A1 (GB005, Inc., priority 2020, published 2022), this text covers inhibition for three compounds.

Common to all, as to assay: Large panel kinase profiling
Common to all, as to assay type: biochemical
Details in all cases: 1 μM test article, 1 mM ATP

The target in experiment [1] is ABL2 (Homo sapiens, UniProt P42684). In outline: (§1)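 Single-point profiling at 1 μM test article used 1 mM ATP. Phosphorylation was tracked by sensor fluorescence increase over time at 30° C., with readings each minute at excitation 360 nm and emission 485 nm.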
ABL2, sequence (P42684 whole entry): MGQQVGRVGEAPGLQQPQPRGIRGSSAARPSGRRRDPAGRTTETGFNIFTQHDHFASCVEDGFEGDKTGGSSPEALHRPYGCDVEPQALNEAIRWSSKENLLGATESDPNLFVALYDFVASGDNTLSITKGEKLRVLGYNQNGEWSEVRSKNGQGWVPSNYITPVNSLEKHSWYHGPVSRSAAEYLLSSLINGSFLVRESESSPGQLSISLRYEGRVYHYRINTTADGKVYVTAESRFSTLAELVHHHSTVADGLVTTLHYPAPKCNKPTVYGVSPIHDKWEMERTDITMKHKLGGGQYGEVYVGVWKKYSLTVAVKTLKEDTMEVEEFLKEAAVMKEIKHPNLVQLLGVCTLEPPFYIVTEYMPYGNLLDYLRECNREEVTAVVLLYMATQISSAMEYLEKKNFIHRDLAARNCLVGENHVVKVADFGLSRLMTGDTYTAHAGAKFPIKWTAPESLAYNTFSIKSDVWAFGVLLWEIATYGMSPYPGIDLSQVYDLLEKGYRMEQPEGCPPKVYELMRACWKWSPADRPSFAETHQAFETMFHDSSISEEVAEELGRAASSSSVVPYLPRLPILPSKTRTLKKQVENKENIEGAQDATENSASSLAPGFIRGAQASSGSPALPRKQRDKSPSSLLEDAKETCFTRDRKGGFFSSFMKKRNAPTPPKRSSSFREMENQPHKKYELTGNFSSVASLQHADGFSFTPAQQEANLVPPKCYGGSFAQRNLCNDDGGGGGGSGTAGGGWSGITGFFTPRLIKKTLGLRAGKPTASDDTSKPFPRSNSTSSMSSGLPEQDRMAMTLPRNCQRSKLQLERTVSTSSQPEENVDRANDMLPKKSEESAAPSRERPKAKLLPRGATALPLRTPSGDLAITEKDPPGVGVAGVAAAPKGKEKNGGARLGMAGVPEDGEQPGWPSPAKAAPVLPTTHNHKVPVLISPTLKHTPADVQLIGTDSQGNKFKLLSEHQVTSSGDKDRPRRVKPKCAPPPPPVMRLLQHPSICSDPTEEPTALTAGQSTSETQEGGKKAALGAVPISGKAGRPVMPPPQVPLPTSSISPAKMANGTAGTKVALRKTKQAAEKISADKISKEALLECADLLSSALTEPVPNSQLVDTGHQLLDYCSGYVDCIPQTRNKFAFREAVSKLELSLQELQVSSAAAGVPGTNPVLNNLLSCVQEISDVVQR
The target in experiment [2] is CAMK1D (Homo sapiens, UniProt Q8IU85). In outline:
as §1

Experiment [3] concerns the target T1, CAMK4 (Homo sapiens, UniProt Q16566).
T1 construct: AssayQuant Technologies, Inc. (ran the panel)
T1 sequence (Q16566 1-473): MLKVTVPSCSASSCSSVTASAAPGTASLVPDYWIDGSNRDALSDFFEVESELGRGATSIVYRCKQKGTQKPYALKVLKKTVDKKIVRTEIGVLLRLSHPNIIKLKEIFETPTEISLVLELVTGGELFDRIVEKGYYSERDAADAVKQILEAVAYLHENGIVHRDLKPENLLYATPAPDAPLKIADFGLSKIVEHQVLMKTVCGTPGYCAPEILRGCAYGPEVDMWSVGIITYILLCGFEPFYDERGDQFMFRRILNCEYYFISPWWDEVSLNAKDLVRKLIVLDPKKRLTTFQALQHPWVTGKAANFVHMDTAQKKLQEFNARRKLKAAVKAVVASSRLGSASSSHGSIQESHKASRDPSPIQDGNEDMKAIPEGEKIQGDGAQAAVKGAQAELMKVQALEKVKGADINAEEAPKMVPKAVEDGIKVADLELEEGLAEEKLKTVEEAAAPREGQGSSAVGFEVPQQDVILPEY
In outline:
as §1

Experiment [4] has as its target T2, CAMKK2 (Homo sapiens, UniProt Q96RR4).
T2 construct: AssayQuant Technologies, Inc. (ran the panel)
An outline of the steps:
as §1

Experiment [5] addresses T3, CDK1/B1 (Homo sapiens, UniProt P06493).
T3 construct: AssayQuant Technologies, Inc. (ran the panel)
An outline of the steps: as §1

For experiment [6], the target named is T4, CDK1/E1 (Homo sapiens, UniProt P06493).
T4 construct: AssayQuant Technologies, Inc. (ran the panel)
T4 sequence (P06493 whole entry, species assumed): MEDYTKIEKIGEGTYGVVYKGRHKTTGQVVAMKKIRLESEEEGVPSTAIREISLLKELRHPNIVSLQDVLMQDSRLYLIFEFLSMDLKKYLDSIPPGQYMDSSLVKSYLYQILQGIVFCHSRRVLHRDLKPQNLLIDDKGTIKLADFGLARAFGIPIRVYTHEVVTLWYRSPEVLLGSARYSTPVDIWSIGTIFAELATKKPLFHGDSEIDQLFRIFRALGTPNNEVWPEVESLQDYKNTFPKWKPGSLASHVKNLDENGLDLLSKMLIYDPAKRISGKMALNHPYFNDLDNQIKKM
T4 sequence (P24864 whole entry partner, species assumed): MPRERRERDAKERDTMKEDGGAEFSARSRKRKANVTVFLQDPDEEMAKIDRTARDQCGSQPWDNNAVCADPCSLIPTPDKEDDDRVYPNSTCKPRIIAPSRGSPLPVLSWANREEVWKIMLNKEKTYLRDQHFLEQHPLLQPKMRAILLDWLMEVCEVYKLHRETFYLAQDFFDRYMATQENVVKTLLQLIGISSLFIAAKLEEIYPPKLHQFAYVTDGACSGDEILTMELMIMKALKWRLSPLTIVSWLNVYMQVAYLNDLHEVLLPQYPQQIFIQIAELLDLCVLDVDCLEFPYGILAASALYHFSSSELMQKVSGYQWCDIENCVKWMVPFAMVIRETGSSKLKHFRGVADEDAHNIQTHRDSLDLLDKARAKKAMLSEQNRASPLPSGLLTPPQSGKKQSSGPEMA
In outline:
as §1

In experiment [7] the target is T5, CDK5/P25 (Homo sapiens, UniProt Q00535).
T5 construct: AssayQuant Technologies, Inc. (ran the panel)
T5 sequence (Q00535 whole entry, species assumed): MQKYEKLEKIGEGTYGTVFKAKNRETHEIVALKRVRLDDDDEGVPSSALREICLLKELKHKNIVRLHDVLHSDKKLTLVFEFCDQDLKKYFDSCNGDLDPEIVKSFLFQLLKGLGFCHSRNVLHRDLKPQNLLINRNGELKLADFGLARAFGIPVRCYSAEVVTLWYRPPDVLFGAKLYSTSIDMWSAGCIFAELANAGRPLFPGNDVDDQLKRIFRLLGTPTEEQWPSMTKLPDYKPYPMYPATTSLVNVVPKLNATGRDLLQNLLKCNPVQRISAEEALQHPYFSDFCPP
T5 sequence (Q15078 99-307 partner limits assumed, species assumed): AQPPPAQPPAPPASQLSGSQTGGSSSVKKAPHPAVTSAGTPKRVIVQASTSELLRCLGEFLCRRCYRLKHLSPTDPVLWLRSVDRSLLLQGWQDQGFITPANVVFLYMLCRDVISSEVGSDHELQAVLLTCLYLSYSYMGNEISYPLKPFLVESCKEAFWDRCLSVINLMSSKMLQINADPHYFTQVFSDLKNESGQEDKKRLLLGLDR
An outline of the steps:
as §1

For experiment [8], the target named is EPHA2 (Homo sapiens, UniProt P29317). In outline:
as §1

In experiment [9] the target is T6, HIPK1 (Homo sapiens, UniProt Q86Z02).
T6 construct: AssayQuant Technologies, Inc. (service provider)
In outline: as §1

Experiment [10] addresses T7, INSR (Homo sapiens, UniProt P06213).
T7 construct: AssayQuant Technologies, Inc. (service provider)
An outline of the steps: as §1

In experiment [11] the target is INSRR (Homo sapiens, UniProt P14616). In outline:
as §1

In experiment [12] the target is T8, JAK1(JH1JH2) (Homo sapiens, UniProt P23458).
T8 construct: JAK1(JH1JH2)
In outline:
as §1

For experiment [13], the target named is T9, JAK2(JH1) (Homo sapiens, UniProt O60674).
T9 construct: JAK2(JH1)
An outline of the steps: as §1

Experiment [14] has as its target T10, MARK2 (Homo sapiens, UniProt Q7KZI7).
T10 construct: AssayQuant Technologies, Inc. (assay service)
In outline:
as §1

The target of experiment [15] is T11, PRKD2 (Homo sapiens, UniProt Q9BZL6).
T11 sequence (Q9BZL6 1-878): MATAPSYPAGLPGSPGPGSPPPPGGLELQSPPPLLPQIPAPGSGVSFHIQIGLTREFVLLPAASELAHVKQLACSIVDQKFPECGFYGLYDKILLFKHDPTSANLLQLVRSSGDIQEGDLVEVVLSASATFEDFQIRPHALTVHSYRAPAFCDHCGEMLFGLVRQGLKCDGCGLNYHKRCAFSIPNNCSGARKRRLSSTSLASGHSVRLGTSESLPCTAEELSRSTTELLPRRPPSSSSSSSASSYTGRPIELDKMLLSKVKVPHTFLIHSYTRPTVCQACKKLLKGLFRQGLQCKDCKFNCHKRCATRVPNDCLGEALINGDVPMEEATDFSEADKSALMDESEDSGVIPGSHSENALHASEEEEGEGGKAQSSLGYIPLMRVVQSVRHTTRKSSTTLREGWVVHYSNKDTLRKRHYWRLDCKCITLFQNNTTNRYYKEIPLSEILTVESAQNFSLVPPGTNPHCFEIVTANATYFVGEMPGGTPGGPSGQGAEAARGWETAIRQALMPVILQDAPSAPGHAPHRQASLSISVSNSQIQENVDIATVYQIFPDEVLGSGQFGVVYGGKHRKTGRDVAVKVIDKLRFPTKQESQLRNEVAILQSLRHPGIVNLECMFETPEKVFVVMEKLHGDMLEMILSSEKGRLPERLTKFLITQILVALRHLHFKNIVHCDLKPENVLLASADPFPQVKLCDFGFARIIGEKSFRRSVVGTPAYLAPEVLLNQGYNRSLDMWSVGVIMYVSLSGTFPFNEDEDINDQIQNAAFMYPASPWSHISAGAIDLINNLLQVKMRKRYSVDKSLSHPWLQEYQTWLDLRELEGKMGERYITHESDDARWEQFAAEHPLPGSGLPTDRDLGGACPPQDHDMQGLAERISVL
In outline:
as §1

Experiment [16] has as its target RAF1 (Homo sapiens, UniProt P04049). In outline:
as §1

Experiment [17] concerns the target RPS6KA2/RSK3 (Homo sapiens, UniProt Q15349). An outline of the steps: as §1

T10 sequence (Q7KZI7 whole entry, species assumed): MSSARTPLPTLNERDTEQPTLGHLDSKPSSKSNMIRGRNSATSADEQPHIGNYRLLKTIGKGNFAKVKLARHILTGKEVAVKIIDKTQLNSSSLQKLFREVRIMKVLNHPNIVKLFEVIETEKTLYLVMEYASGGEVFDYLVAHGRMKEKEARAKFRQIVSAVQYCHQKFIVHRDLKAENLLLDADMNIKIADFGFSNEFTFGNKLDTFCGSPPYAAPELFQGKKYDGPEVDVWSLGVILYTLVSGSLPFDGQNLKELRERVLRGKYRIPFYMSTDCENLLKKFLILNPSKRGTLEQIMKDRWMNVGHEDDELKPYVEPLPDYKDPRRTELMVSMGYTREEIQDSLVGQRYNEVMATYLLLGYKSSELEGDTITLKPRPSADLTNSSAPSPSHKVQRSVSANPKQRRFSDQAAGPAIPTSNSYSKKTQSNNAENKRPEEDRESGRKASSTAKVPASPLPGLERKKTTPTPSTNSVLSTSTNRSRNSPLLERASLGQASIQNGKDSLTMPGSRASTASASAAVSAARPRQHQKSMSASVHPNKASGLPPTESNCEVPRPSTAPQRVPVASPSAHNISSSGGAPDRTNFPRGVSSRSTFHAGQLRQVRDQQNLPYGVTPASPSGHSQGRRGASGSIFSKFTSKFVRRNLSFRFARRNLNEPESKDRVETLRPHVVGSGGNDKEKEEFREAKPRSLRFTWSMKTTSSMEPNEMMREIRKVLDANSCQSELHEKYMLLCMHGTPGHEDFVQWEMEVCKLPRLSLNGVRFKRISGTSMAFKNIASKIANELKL
CAMK1D, sequence (Q8IU85 whole entry): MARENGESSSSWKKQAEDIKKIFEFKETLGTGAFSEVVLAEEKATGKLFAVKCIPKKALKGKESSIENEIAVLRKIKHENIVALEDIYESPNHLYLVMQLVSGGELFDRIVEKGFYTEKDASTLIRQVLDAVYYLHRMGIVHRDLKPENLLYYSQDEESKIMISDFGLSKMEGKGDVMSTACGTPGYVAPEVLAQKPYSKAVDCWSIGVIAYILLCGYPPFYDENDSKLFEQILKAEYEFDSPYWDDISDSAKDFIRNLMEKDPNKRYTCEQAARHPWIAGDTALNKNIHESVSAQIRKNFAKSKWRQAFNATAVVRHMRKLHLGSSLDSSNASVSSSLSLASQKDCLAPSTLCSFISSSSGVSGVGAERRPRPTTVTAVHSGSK
T7 sequence (P06213 28-1382, species assumed): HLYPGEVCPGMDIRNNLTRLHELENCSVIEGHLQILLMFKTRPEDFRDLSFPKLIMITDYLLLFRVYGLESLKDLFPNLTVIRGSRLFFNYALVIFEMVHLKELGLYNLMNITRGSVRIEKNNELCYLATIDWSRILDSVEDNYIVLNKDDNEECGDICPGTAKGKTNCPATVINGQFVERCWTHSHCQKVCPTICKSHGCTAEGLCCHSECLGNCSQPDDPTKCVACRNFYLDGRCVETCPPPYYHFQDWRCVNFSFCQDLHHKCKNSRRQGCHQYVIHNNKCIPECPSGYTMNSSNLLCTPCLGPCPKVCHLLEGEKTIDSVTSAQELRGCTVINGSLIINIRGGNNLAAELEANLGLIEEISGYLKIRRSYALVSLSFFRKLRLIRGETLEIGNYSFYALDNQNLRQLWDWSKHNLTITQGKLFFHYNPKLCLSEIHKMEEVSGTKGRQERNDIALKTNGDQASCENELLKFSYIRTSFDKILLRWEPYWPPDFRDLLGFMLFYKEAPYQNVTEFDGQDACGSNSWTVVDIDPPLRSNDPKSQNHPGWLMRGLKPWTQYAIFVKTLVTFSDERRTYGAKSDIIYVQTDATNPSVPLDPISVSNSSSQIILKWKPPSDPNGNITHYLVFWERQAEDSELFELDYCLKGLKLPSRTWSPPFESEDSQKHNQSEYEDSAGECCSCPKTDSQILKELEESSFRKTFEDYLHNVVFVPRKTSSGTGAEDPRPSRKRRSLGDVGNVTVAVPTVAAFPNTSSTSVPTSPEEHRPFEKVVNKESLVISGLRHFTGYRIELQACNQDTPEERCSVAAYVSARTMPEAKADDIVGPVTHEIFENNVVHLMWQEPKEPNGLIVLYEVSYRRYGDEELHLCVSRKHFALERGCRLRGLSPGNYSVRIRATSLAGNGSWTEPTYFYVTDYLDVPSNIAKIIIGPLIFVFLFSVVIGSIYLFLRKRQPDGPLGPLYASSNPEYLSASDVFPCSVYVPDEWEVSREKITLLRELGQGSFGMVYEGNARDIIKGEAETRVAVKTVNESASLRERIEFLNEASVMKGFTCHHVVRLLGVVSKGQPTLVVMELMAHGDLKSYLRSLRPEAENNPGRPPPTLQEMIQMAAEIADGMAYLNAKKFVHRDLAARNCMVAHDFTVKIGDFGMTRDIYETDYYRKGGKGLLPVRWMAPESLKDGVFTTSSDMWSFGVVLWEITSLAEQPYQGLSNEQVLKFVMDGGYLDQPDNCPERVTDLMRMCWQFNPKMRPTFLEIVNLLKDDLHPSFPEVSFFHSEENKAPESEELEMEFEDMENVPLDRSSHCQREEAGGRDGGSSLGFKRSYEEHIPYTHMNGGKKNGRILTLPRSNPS

A word on the inhibition: it is the drop in the measured response relative to a control, in per cent. As to `C=CC(=O)N1CCCC(c2c(F)cc(C(N)=O)c3[nH]c4c(c23)CCCCC4)C1` (single isomer, unassigned) [Compound 5-6], the inhibition at 1 µM was -29.7% in experiment [1]; 19.6% in experiment [2]; 15.7% in experiment [3]; 25.8% in experiment [4]; -13.7% in experiment [5]; -3.6% in [6]. In addition, the inhibition at 1 µM is -11.1% in experiment [7]; -1.9% in experiment [8]; 6.6% in experiment [9]; 10.3% in experiment [10]; 10.7% in experiment [11]; 8.5% in experiment [12]. The inhibition at 1 µM in experiment [13] was 11.4%; in [14], 11.8%; in experiment [15], -14.2%; in experiment [16] it was 3.7%; in experiment [17], 1.7%.
As for `C=CC(=O)N1CCC[C@@H](c2c(F)cc(C(N)=O)c3[nH]c4c(c23)CC2(CC4)CC2)C1` [Compound 6-2, (S)-5-(1-acryloylpiperidin-3-yl)-6-fluoro-1,2,4,9-tetrahydrospiro[carbazole-3,1′-cyclopropane]-8-carboxamide], the inhibition at 1 µM in experiment [1] is -1.3%; in [2] it was 26.1%; in experiment [3], 26.6%; in experiment [4], 0.4%; in experiment [5] it was -9.5%; in experiment [6] it was -7%. In addition, the inhibition at 1 µM in experiment [7] was -13%; in experiment [8] it was 9.5%; in experiment [9], 41.1%; in experiment [10] it was -6.6%; in experiment [11] it was -54.1%; in experiment [12], 29.4%. In addition, the inhibition at 1 µM in experiment [13] was 10.3%; in [14], -33.3%; in experiment [15], -32.9%; in experiment [16], 1%; in experiment [17], -47.9%.
As to `C=CC(=O)N1CCC[C@@H](c2c(F)cc(C(N)=O)c3[nH]c4c(c23)CCC4)C1` [Compound 10-2, (S)-8-(1-acryloylpiperidin-3-yl)-7-fluoro-1,2,3,4-tetrahydrocyclo-penta[b]indole-5-carboxamide], the inhibition at 1 µM is 1.9% in experiment [1]; 10.5% in experiment [2]; 15.3% in experiment [3]; 2.6% in experiment [4]; -3.8% in experiment [5]; -10.6% in experiment [6]. The inhibition at 1 µM in experiment [7] is 1.6%; in experiment [8] it was -9.6%; in experiment [9], 33.6%; in experiment [10], -6%; in experiment [11] it was -5.7%; in [12], 14.8%. Further, the inhibition at 1 µM is -0.8% in experiment [13]; -8.8% in experiment [14]; -12.1% in experiment [15]; -3.1% in [16]; -38% in experiment [17].
